# Data from patent US8398987B2, “Use of platelet glycopeptide IIIa epitopes in the treatment of immune thrombocytopenic purpura” (The University Court of the University of Aberdeen, priority 2007, dated 2013).
# Entries after “also recorded” stand apart in the source; their conditions may differ.
# Experiments:
# Assay type in all cases: cell-based, human
# [1] = tested on: PBMC from healthy control donors; assay: T cell proliferation assay, PBMC from healthy control donors
# Excerpt: (§1) The human platelet membrane GPIIIa amino acid sequence (Genebank Accession no: M35999) was synthesized (Pepceuticals, Nottingham, UK) as a complete panel of 86 15-mer peptides, overlapping by 5-10 amino acids (Table 3). Peptide purity was monitored by amino acid analysis and mass spectrometry as reported previously by Barker R N et al in Blood 1997; 90:2701-2715, Scott L et al in Blood 2000; 96:4011-4019 and Cairns L S et al in J Am Soc Nephrol 2003; 14:2801-2812. The peptides were used for stimulation of T cells at the previously determined optimum concentration of […] in culture.
# (§2) The antigen mycobacterial purified protein derivative (PPD) (Statens Serumintitut, Denmark) was added to cultures at […] to stimulate positive control recall T cell responses. Concanavalin A (Con A) (Sigma, Poole, Dorset, UK) was used at […] as a positive control T cell mitogen.
# Mononuclear cells were recovered from anti-coagulated samples of peripheral blood from AITP patients and control donors by density gradient centrifugation (Lymphoprep; Nycomed, Denmark). Cell viability determined by trypan blue exclusion was greater than 90% in all samples. […]
# PBMC from AITP patients = assay: T cell proliferation assay, PBMC from AITP patients stimulated with GPIIIa peptides; set-up: PBMC proliferation to control recall antigen or mitogen: dose or concentration left out as unconfirmed; conditions: for PBMC proliferation in serial samples: patient AITP22, three occasions over 56 weeks (presentation, 44 weeks, 56 weeks); for AITP Patients with PBMC Response to Peptide, No High Affinity DR Expressed: patients not expressing an HLA-DR type predicted to bind the peptide with high affinity; for AITP Patients with PBMC Response to Peptide, High Affinity DR Expressed: patients expressing an HLA-DR type predicted to bind the peptide with high affinity
# Excerpt: as §1, §2
# Mononuclear cells were recovered from anti-coagulated samples of peripheral blood from AITP patients and control donors by density gradient centrifugation (Lymphoprep; Nycomed, Denmark). Cell viability determined by trypan blue exclusion was greater than 90% in all samples.
# Assays of T cell proliferation were carried out, as described by Scott L et al in Blood 2000; 96:4011-4019, Cairns L S et al in J Am Soc Nephrol 2003; 14:2801-2812 and Sukati H et al in Transfusion 2005; 45:1165-1177, under culture conditions designed to favor responses by previously activated T cells, rather than primary responses. Briefly, PBMC were cultured at 1.25×10^6 cells per mL in Alpha Modification of Eagle's Medium (Sigma, Poole, Dorset, UK) supplemented with 5% autologous serum. Synthetic GPIIIa peptides or control stimuli were added to cultures, which were incubated at 37° C. in a humidified atmosphere of 95% air and 5% CO2. T cell proliferation was estimated from the incorporation of 3H-thymidine in triplicate […] samples withdrawn from the cultures 5 days after stimulation, when recall responses peak. Results are presented either as the mean counts per minute (CPM)±SD of the triplicate samples, or as a stimulation index (SI) expressing the ratio of mean CPM in stimulated versus unstimulated control cultures. An SI>3 is interpreted as a positive response.
# [2] = tested on: HLA-class II molecules (HLA-DR, -DQ, -DP); assay: HLA restriction of PBMC proliferating in response to GPIIIa peptides (blocking antibodies); conditions: PBMC from four AITP patients
# Protocol: To determine the HLA Class II restriction of proliferating T cells, […] anti-DR, anti-DQ or anti-DP blocking monoclonal antibodies (Pharmingen, Oxon, UK) were added to replicate cultures before stimulation.
# Dominant peptides 2(aa6-20), 47 (aa361-375), 53 (aa421-435) and 82 (aa711-725) were selected for these experiments and used to stimulate PBMC from four AITP patients, in the presence or absence of anti-DP, -DQ or DR. Representative results from one patient are illustrated in FIG. 7.
Substance,stimulation of PBMC from control donors [1],PBMC proliferation in serial samples (PBMC from AITP patients),"AITP Patients with PBMC Response to Peptide, No High Affinity DR Expressed (PBMC from AITP patients)","blocking of peptide-induced proliferation by anti-DP, -DQ or -DR [2]",Stimulatory Peptides (SI > 3) (PBMC from AITP patients; PBMC from patient AITP26),PBMC proliferation to control recall antigen or mitogen (PBMC from AITP patients; PBMC from all patients and control donors),"AITP Patients with PBMC Response to Peptide, High Affinity DR Expressed (PBMC from AITP patients)"
"ALLIWKLLITIHDRK (listed as Homo sapiens) [peptide 82, GPIIIa residues 711-725]",only dominant sequence to induce proliferation by Th cells from control donors; also recorded: more than one control donor,initially absent but appeared at later time points,AITP12,blocked by at least one of the antibodies,,,
"CECDDFSCVRYKGEM (listed as Homo sapiens) [compound 63, GPIIIa residues 521-535]",,,,,> 63,,
"Concanavalin A [Con A, reference compound]",,,,,,proliferated normally,
"DDCVVRFQYYEDSSG (listed as Homo sapiens) [peptide 77, GPIIIa residues 661-675]",,seen only in the second sample,"AITP2,; also recorded: AITP8",,,,"AITP11,; also recorded: AITP16,; also recorded: AITP22"
"DLPEELSLSFNATCL (listed as Homo sapiens) [compound 47, GPIIIa residues 361-375]",,initially absent but appeared at later time points,,blocked by at least one of the antibodies,,,None
"FKDSLIVQVTFDCDC (listed as Homo sapiens) [compound 53, GPIIIa residues 421-435]",,initially absent but appeared at later time points,"AITP1,; also recorded: AITP8,; also recorded: AITP9,; also recorded: AITP10,; also recorded: AITP22,; also recorded: AITP24",blocked by at least one of the antibodies,,,"AITP11,; also recorded: AITP-12,; also recorded: AITP18,; also recorded: AITP20"
"GVLSMDSSNVLQLIV (listed as Homo sapiens) [compound 44, GPIIIa residues 331-345]",,,"AITP1,; also recorded: AITP3,; also recorded: AITP10,; also recorded: AITP18,; also recorded: AITP21,",,,,"AITP8,; also recorded: AITP24"
"PGSYGDTCEKCPTCP (listed as Homo sapiens) [compound 70, GPIIIa residues 591-605]",,,"AITP2,; also recorded: AITP7,; also recorded: AITP15,; also recorded: AITP20,; also recorded: AITP24",,,,None
"TTRGVSSCQQCLAVS (listed as Homo sapiens) [peptide 2, GPIIIa residues 6-20]",,elicited proliferation from all samples,,blocked by at least one of the antibodies,,,None
